# Source: US20020114854A1, “Chinese herb medicine composition for cancer prophylaxis and therapy” (priority 2001, published 2002)
# Experiments:
# Assay type in all cases: cell-based
# [1] = system: esophagus cancer cell strain CE-81; assay: survival rate of esophagus cancer cell strain CE-81 (CTAQ cell activity, OD 492 nm); set-up: dose or concentration left out as unconfirmed; details: treated 96 hours
# Protocol: Regarding to the cell strain culture in following embodiments, the culture solution of Ham's F 12/DMEM (v/v 1:1) including 10% (v/v) fetus cattle serum (FCS) and antibiotics (100 μg/ml streptomycin, 100 IU/ml penicillin, 1 μg/ml amphotericin) is used for cultivating all cell strains at 37° C., 5% CO2. When the cell grows to 80% full, the cell is washed down by Trypsin-EDTA to do the sub-culture. For the sub-culture, the cell is rinsed by HBSS first, washed down by Trypsin-EDTA, and centrifugated at 1000 rpm, 25° C. for 10 minutes. Sequentially, the cell is diluted by four times culture solution to be continuously cultivated. In addition, the sub-culture is done once per week. […]
# The esophagus cancer cell strain, CE-81, is washed down by Trypsin-EDTA, centrifugated, and diluted to a cell concentration of 10^6 cells/ml by FCS-free culture solution. […] After different treating time, the cell strain CE-81 is added […] cell activity detecting agent CTAQTM, and the cell activity is detected at OD 492 nm by multiple frequency scanner. […] Thus, the survival rate of cell (%) is obtained via comparing the determined value difference between after and before adding CTAQ with the standard curve by intercalation.
# [2] = system: cervical cancer cell strain CC-135; assay: survival rate of cervical cancer cell strain CC-135 (CTAQ cell activity); set-up: dose or concentration left out as unconfirmed; details: 10 p, 1.0 p or 0.1 p cis-Platine, treated 24 hours
# [3] = system: ovary cancer cell strain OC-117; assay: survival rate of ovary cancer cell strain OC-117 (CTAQ cell activity); details: 10 p (20 mg/ml) cis-Platine, treated over 48 hours
# [4] = system: bladder cancer cell strain Bladder-3; assay: survival rate of bladder cancer cell strain Bladder-3 (CTAQ cell activity); set-up: dose or concentration left out as unconfirmed; details: treated over 48 hours
compound,measurement,setting,value
[NH2][Pt]([NH2])([Cl])[Cl] [cis-Platine],survival rate of CE-81,[1],about 60%
same,survival rate of CC-135,[2],about 50%
same,survival rate of OC-117,[3],below 20%
same,inhibition effect on Bladder-3 (in words),[4],significant inhibition effect
